According to patent US7618960B2, “Morpholine type cinnamide compound” (Eisai R&D Management Co., Ltd., priority 2005, dated 2009):

system: Aβ42 production; experiment: Quantification of Aβ peptide in culture of neurons from rat fetus brain (Aβ ELISA); assay type: cell-based; conditions: Neuron, 72 h; rat primary neuronal culture (cerebral cortex, embryonic day 18 Wistar rats); medium collected three days after addition of compound; Aβx-42 ELISA; read-out: Activity for reducing Aβ42 production IC50
Procedure: Quantification of Aβ Peptide in Culture of Neurons from Rat Fetus Brain
(1) Rat Primary Neuronal Culture
Primary neuronal cultures were prepared from the cerebral cortex of embryonic day 18 Wistar rats (Charles River Japan, Yokohama, Japan). Specifically, the embryos were aseptically removed from pregnant rats under ether anesthesia. The brain was isolated from the embryo and immersed in an ice-cold L-15 medium (Invitrogen Corp. Cat #11415-064, Carlsbad, Calif., USA, or SIGMA L1518, for example). The cerebral cortex was collected from the isolated brain under a stereoscopic microscope. The cerebral cortex fragments collected were enzymatically treated in an enzyme solution containing 0.25% trypsin (Invitrogen Corp. Cat #15050-065, Carlsbad, Calif., USA) and 0.01% DNase (Sigma D5025, St. Louis, Mo., USA) at 37° C. for 30 minutes to disperse the cells. Here, the enzymatic reaction was stopped by adding inactivated horse serum to the solution. The enzymatically treated solution was centrifuged at 1,500 rpm for five minutes to remove the supernatant. 5 to 10 ml of a medium was added to the resulting cell mass. Neurobasal medium (Invitrogen Corp. Cat #21103-049, Carlsbad, Calif., USA) supplemented with 2% B27 supplement (Invitrogen Corp. Cat #17504-044, Carlsbad, Calif., USA), 25 μM 2-mercaptoethanol (2-ME, WAKO Cat #139-06861, Osaka, Japan), 0.5 mM L-glutamine (Invitrogen Corp. Cat #25030-081, Carlsbad, Calif., USA), and Antibiotics-Antimycotics (Invitrogen Corp. Cat #15240-062, Carlsbad, Calif., USA) was used as the medium (Neurobasal/B27/2-ME). However, the above Neurobasal medium not supplemented with 2-ME (Neurobasal/B27) was used for the assay. The cells were redispersed by mild pipetting of the cell mass to which the medium was added. The cell dispersion was filtered through a 40-μm nylon mesh (Cell Strainer, Cat #35-2340, Becton Dickinson Labware, Franklin Lakes, N.J., USA) to remove the remaining cell mass, and thus a neuronal cell suspension was obtained. The neuronal cell suspension was diluted with the medium and then plated in a volume of 100 μl/well at an initial cell density of 5×10^5 cells/cm^2 in a 96-well polystyrene culture plate pre-coated with poly-L or D-lysine (Falcon Cat #35-3075, Becton Dickinson Labware, Franklin Lakes, N.J., USA coated with poly-L-lysine using the method shown below, or BIOCOAT™ cell environments Poly-D-lysine cell ware 96-well plate, Cat #35-6461, Becton Dickinson Labware, Franklin Lakes, N.J., USA). Poly-L-lysine coating was carried out as follows. 100 μg/ml of a poly-L-lysine (SIGMA P2636, St. Louis, Mo., USA) solution was aseptically prepared with a 0.15 M borate buffer (pH 8.5). 100 μl/well of the solution was added to the 96-well polystyrene culture plate and incubated at room temperature for one or more hours or at 4° C. overnight or longer. The coated 96-well polystyrene culture plate was washed with sterile water four or more times, and then dried or rinsed with, for example, sterile PBS or medium, and used for cell plating. The plated cells were cultured in the culture plate at 37° C. in 5% […]-95% air for one day. Then, the total amount of the medium was replaced with a fresh Neurobasal™/B27/2-ME medium, and then the cells were cultured for further three days.
The drug was added to the culture plate on Day 4 of culture as follows. The total amount of the medium was removed from the wells, and 180 μl/well of Neurobasal medium not containing 2-ME and containing 2% B-27 (Neurobasal/B27) was added thereto. A solution of the test compound in dimethyl sulfoxide (hereinafter abbreviated as DMSO) was diluted with Neurobasal/B27 so that the initial concentration was at 10-fold of the final concentration. 20 μl/well of the dilution was added to and sufficiently mixed with the medium. The final DMSO concentration was 1% or less. Only DMSO was added to the control group.
The cells were cultured for three days after addition of the compound, and the total amount of the medium was collected. […]

SMILES | IC50 [nM]
COc1cc(/C=C2\OC(C)(C)CN([C@@H](C)c3ccnc(F)c3F)C2=O)ccc1-n1cnc(C)c1 [Example 58, (Z)-4-[(S)-1-(2,3-difluoropyridin-4-yl)ethyl]-2-[1-[3-methoxy-4-(4-methyl-1H-imidazol-1-yl)phenyl]methylidene]-6,6-dimethylmorpholin-3-one] | 67
COc1cc(/C=C2\O[C@@H](C)CN([C@H](C)c3ccc(Cl)nc3)C2=O)ccc1-n1cnc(C)c1 [Example 19, (Z)-(S)-4-[(R)-1-(6-chloropyridin-3-yl)ethyl]-2-[1-[3-methoxy-4-(4-methyl-1H-imidazol-1-yl)phenyl]methylidene]-6-methylmorpholin-3-one] | 54
COc1cc(/C=C2\O[C@@H](C)CN([C@H](c3ccc(F)cc3)[C@@H](C)O)C2=O)ccc1-n1cnc(C)c1 [Example 32, (Z)-(S)-4-[(1R,2R)-1-(4-fluorophenyl)-2-hydroxypropyl]-2-[1-[3-methoxy-4-(4-methyl-1H-imidazol-1-yl)phenyl]methylidene]-6-methylmorpholin-3-one] | 41
COc1cc(/C=C2\O[C@@H](C)CN([C@@H](C)c3ccnc(Cl)c3)C2=O)ccc1-n1cnc(C)c1 [Example 51, (Z)-(S)-4-[(S)-1-(2-chloropyridin-4-yl)ethyl]-2-[1-[3-methoxy-4-(4-methyl-1H-imidazol-1-yl)phenyl]methylidene]-6-methylmorpholin-3-one] | 67
COc1cc(/C=C2\O[C@@H](C)CN([C@](C)(CO)c3cc(F)c(F)c(F)c3)C2=O)ccc1-n1cnc(C)c1 [Example 36, (Z)-(S)-4-[(S)-2-hydroxy-1-methyl-1-(3,4,5-trifluorophenyl)ethyl]-2-[1-[3-methoxy-4-(4-methyl-1H-imidazol-1-yl)phenyl]methylidene]-6-methylmorpholin-3-one] | 109
Cc1cn(-c2ccc(/C=C3\CCCN([C@H](c4cc(F)c(F)c(F)c4)[C@@H](C)O)C3=O)cc2F)cn1 [Example 85, (E)-3-{1-[3-fluoro-4-(4-methyl-1H-imidazol-1-yl)phenyl]methylidene}-1-[(1R,2R)-2-hydroxy-1-(3,4,5-trifluorophenyl)propyl]piperidin-2-one] | 64
COc1cc(/C=C2\OC(C)(C)CN([C@H]3CCOc4ccccc43)C2=O)ccc1-n1cnc(C)c1 [Example 12, (Z)-4-[(S)-chroman-4-yl]-2-[1-[3-methoxy-4-(4-methyl-1H-imidazol-1-yl)phenyl]methylidene]-6,6-dimethylmorpholin-3-one] | 101
COc1cc(/C=C2\O[C@@H](C)CN([C@@H](C)c3ccc(F)cc3)C2=O)ccc1-n1cnc(C)c1 [Example 9, (Z)-(S)-4-[(S)-1-(4-fluorophenyl)ethyl]-2-[1-[3-methoxy-4-(4-methyl-1H-imidazol-1-yl)phenyl]methylidene]-6-methylmorpholin-3-one] | 60
COc1cc(/C=C2\O[C@H](C)CN(Cc3ccc(F)c(F)c3F)C2=O)ccc1-n1cnc(C)c1 [Example 6, (Z)-(R)-2-[1-[3-methoxy-4-(4-methyl-1H-imidazol-1-yl)phenyl]methylidene]-6-methyl-4-(2,3,4-trifluorobenzyl)morpholin-3-one] | 156
COc1cc(/C=C2\OCCN([C@H](c3cc(F)c(F)c(F)c3)[C@@H](C)O)C2=O)ccc1-n1cnc(C)c1 [Example 30, (Z)-4-[(1R,2R)-2-hydroxy-1-(3,4,5-trifluorophenyl)propyl]-2-[1-[3-methoxy-4-(4-methyl-1H-imidazol-1-yl)phenyl]methylidene]morpholin-3-one] | 54
COc1cc(/C=C2\O[C@@H](C)CN([C@@H](C)c3ccnc(Cl)c3F)C2=O)ccc1-n1cnc(C)c1 [Example 52, (Z)-(S)-4-[(S)-1-(2-chloro-3-fluoropyridin-4-yl)ethyl]-2-[1-[3-methoxy-4-(4-methyl-1H-imidazol-1-yl)phenyl]methylidene]-6-methylmorpholin-3-one] | 86
